Experimental data reported in article PMC11488110 (Theranostics, 2024).

Tests used:
Assay type in all cases: cell-based
hPPARα = molecular target: T1, hPPARα (Homo sapiens, UniProt Q07869); assay: In vitro co-transfection (PPRE-luciferase) assay in CV-1 cells, hPPARα; details: 24 h, read-out: Potency (EC50) hPPARα
T1 sequence (Q07869 1-468): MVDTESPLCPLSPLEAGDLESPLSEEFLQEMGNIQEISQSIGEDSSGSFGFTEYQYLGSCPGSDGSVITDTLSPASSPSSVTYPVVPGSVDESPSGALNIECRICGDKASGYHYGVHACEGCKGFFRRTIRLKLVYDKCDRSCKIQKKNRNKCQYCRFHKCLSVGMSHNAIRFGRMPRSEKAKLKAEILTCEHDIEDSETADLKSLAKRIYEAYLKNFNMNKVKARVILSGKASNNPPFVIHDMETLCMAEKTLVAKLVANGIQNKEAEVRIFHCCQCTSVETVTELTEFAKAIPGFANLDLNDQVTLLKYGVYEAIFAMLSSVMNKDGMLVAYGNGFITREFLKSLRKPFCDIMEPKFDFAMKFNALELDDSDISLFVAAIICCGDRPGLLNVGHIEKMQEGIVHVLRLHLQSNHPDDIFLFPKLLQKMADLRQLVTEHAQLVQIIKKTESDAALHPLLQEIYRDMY

hPPARδ = molecular target: T2, hPPARδ (Homo sapiens, UniProt Q03181); assay: In vitro co-transfection (PPRE-luciferase) assay in CV-1 cells, hPPARδ
T2 construct: expressed in transfected cells; host or cells: CV-1 monkey kidney cells
T2 sequence (Q03181 1-441): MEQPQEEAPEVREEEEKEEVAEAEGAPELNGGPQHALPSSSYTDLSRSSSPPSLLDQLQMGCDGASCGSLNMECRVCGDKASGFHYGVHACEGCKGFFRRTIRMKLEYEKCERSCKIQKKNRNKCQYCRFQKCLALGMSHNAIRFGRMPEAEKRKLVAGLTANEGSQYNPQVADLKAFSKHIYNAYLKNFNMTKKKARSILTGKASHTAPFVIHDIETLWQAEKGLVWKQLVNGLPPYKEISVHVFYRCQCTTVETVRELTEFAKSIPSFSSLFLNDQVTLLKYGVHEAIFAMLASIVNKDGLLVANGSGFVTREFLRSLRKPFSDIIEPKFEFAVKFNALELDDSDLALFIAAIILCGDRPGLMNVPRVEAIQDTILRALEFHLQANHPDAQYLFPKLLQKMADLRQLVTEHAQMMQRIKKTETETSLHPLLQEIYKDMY

hPPARγ = molecular target: T3, hPPARγ (Homo sapiens, UniProt P37231); assay: In vitro co-transfection (PPRE-luciferase) assay in CV-1 cells, hPPARγ; details: 24 h, read-out: Potency (EC50) hPPARγ
T3 sequence (P37231 1-505): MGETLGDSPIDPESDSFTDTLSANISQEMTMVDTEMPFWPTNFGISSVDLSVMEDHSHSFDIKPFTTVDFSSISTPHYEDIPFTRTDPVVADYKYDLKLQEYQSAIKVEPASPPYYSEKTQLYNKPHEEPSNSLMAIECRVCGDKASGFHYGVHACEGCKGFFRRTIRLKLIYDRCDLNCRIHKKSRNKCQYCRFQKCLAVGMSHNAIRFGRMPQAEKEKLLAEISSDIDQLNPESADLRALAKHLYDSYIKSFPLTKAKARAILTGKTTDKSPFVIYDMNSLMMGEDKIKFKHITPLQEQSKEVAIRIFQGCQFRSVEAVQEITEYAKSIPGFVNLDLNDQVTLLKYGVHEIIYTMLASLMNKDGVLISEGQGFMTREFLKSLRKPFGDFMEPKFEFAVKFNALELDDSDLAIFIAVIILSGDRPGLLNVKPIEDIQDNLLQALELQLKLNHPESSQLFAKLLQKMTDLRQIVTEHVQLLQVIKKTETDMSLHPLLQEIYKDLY

primary mouse astrocytes = assay: Cytotoxicity assay (EZ-Cytox) in primary mouse astrocytes; details: up to 30 μM, 24 h

Row | Compound | EC50 (hPPARα) | EC50 (hPPARδ; co-transfection assay, CV-1 cells, 24 h, read-out: Potency (EC50) hPPARδ) | Selectivity index hPPARα/hPPARδ (hPPARδ; ratio EC50(hPPARα)/EC50(hPPARδ)) | Selectivity index hPPARγ/hPPARδ (hPPARδ; ratio EC50(hPPARγ)/EC50(hPPARδ)) | EC50 (hPPARγ) | Cytotoxicity in primary astrocytes (primary mouse astrocytes)
1 | Cc1cc([Se]Cc2[se]c(-c3ccc(C(F)(F)F)cc3)nc2C)ccc1OCC(=O)O [Compound 5b, {2-Methyl-4-[4-methyl-2-(4-trifluoromethyl-phenyl)-selenazol-5-yl-methylselanyl]-phenoxy}-acetic acid] | > 10 µM | 0.0043 µM | >2300 | >2300 | > 10 µM | –
2 | Cc1cc(SCc2sc(-c3ccc(C(F)(F)F)cc3)nc2C)ccc1OCC(=O)O [GW501516, reference compound] | – | – | – | – | – | no cytotoxicity
